{"source": "patent US20190048020A1", "about": "“DEUTERIUM-MODIFIED CFTR MODULATORS” (VERTEX PHARMACEUTICALS (EUROPE) LIMITED, priority 2016, published 2019)", "origin": "cited, not measured here", "biological_target": "T1, CFTR G5551D mutation (Homo sapiens, UniProt P13569, G551D)", "T1 construct": "phase II study in patients with the CFTR G5551D mutation; host or cells: patients (in vivo, sweat chloride read-out)", "T1 sequence (P13569 whole entry G551D)": "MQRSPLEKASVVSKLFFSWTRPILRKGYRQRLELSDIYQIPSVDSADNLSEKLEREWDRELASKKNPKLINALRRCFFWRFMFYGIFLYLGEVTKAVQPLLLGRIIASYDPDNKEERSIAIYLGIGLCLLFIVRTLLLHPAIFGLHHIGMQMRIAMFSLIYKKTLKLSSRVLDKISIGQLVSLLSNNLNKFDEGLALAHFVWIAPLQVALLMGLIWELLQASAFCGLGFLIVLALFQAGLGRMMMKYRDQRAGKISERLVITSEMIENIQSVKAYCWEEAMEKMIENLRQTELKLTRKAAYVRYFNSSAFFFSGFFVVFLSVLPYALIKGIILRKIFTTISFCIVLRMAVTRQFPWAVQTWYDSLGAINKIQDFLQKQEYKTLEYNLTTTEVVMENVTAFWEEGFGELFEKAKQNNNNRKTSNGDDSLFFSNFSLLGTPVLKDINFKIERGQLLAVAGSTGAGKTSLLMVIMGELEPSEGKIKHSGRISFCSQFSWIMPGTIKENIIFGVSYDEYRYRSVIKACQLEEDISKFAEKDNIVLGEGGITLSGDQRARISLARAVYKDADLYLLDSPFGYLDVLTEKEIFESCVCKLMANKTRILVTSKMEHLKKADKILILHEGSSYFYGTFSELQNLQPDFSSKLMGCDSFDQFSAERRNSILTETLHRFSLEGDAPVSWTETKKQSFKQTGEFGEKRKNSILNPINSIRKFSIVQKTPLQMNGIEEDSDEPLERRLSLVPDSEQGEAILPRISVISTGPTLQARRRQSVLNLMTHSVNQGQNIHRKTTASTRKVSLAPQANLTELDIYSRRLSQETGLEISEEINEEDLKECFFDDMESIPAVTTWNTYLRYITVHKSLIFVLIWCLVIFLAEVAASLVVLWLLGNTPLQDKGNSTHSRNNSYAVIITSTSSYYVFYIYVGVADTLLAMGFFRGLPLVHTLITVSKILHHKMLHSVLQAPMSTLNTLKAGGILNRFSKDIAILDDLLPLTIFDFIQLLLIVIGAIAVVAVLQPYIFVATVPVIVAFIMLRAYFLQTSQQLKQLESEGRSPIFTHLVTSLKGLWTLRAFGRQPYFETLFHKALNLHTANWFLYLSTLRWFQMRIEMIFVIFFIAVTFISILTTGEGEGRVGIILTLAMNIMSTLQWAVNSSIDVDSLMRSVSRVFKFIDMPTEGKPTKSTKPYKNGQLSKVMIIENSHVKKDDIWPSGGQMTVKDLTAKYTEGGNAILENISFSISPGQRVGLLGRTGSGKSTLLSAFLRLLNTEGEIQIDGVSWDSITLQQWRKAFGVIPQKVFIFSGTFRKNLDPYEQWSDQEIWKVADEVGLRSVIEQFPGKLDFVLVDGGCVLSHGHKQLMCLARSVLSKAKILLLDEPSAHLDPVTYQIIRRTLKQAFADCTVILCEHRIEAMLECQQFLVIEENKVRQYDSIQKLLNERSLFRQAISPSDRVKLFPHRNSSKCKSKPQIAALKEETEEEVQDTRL", "details": "phase II study, patients with the CFTR G5551D mutation", "data": [{"smiles": "CC1(C)Cc2c(sc(NC(=O)c3ccn[nH]3)c2C(N)=O)C(C)(C)O1", "note": "[GLPG1837]", "values": [{"measurement": "sweat chloride concentration", "value": "statistically significant dose-dependent decrease"}]}]}
